Data: paper PMC3365510 (Bioorganic & medicinal chemistry letters, 2012)
Values joined by “and” are separate entries in the source; they are usually repeats but may differ in a detail not shown here. Equal entries are not always repeated. “Also recorded” adds a separate entry of the source. Where two headings read alike, the source gives them in different places.

Assays:
mGlu2 = mGlu2 (Homo sapiens, UniProt Q14416); assay: mGlu2 GIRK assay; type: cell-based; details: mGlu3 NAM potency versus mGlu2 GIRK
mGlu2, sequence (Q14416 19-872): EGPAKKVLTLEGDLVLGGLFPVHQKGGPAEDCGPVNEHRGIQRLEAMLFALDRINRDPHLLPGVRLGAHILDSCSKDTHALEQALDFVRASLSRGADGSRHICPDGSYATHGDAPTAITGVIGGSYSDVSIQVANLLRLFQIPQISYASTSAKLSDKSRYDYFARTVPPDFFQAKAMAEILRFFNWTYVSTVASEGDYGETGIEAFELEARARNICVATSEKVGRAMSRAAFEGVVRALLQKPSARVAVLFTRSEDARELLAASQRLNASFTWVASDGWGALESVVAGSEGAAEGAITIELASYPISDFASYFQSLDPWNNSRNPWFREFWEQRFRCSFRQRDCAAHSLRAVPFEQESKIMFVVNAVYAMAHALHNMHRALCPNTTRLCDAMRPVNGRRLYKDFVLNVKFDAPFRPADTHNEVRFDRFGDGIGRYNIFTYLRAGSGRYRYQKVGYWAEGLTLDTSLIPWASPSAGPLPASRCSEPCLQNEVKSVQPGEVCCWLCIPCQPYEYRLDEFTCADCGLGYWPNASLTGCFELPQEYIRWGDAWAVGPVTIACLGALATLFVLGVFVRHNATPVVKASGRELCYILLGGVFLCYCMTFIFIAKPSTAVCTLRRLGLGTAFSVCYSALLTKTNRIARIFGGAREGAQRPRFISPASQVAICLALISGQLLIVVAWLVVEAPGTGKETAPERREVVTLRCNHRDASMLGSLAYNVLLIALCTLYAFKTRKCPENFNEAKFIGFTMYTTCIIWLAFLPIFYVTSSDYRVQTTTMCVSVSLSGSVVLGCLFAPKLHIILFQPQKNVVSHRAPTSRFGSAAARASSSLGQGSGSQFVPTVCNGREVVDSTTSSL

[1] = Intrinsic clearance in rat liver microsomes; type: in vitro ADME
mGlu3 [2] = target: T1, mGlu3 (Homo sapiens, UniProt Q14832); assay: mGlu3 GIRK assay; type: cell-based
T1 sequence (Q14832 23-879): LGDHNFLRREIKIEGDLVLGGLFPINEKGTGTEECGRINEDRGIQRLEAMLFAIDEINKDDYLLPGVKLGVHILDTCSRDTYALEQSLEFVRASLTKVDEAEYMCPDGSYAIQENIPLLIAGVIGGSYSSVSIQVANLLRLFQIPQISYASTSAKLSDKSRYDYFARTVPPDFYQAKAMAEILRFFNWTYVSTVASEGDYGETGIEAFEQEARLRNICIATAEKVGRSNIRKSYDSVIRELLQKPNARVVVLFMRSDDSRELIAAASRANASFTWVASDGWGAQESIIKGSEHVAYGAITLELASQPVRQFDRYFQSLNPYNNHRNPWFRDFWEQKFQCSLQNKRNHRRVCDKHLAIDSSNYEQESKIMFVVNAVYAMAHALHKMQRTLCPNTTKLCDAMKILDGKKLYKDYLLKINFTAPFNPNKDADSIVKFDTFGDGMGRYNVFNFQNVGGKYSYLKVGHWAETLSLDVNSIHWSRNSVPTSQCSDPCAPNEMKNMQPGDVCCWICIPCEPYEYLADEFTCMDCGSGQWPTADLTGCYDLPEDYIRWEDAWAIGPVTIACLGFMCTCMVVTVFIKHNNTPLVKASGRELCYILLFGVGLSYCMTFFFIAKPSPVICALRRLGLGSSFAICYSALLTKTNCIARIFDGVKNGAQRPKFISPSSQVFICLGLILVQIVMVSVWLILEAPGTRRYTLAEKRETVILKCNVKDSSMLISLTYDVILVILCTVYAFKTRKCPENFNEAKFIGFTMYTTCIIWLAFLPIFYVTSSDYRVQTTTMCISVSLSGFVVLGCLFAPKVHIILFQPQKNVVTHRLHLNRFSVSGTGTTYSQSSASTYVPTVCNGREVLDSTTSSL

mGlu3 [3] = target: T1, mGlu3; assay: Schild analysis, glutamate concentration-response in mGlu3 GIRK; type: cell-based; details: rightward shift and decreased maximal efficacy of glutamate
IP plasma:brain level = type: in vivo, rat; details: 10 mg/kg IP
[4] = system: 68 GPCRs, ion channels and transporters; assay: Lead Profiling Screen at Ricerca, radioligand binding assays; details: screened at 10 μM, 68 targets
[5] = Intrinsic clearance in human liver microsomes; type: in vitro ADME
mGlu5 = mGlu5 (Homo sapiens, UniProt P41594); assay: mGlu5 calcium assay; type: cell-based
mGlu5, sequence (P41594 21-1212): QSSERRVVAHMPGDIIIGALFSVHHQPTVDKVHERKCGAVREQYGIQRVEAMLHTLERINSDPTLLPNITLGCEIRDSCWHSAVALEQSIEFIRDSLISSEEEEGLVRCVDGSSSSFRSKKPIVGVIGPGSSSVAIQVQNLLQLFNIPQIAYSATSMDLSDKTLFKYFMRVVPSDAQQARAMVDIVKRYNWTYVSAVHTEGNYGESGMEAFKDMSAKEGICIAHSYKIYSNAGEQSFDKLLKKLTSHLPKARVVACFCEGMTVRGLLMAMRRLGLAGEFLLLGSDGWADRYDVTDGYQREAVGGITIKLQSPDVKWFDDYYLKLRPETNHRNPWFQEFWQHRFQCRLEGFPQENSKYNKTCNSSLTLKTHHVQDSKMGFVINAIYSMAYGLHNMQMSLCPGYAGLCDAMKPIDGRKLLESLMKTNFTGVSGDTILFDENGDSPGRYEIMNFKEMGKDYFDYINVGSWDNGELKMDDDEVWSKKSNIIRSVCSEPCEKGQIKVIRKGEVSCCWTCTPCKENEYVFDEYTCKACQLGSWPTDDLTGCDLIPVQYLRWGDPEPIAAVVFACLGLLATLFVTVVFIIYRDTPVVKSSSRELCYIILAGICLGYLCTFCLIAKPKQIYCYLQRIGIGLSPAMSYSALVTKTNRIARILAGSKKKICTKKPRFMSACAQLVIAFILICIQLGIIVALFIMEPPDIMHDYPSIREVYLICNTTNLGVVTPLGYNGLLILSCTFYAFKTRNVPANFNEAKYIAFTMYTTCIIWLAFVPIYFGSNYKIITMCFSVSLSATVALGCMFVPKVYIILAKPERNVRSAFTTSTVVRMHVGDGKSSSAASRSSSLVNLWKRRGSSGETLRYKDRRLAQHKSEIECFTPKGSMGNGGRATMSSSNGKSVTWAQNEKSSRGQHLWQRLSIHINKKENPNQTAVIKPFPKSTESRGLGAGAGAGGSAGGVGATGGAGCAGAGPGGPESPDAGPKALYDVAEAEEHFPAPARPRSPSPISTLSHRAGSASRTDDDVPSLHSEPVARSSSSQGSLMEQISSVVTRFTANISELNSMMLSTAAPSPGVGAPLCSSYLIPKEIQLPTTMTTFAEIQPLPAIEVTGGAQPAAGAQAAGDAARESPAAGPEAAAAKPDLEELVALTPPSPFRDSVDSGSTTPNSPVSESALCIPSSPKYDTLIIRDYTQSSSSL

[6] = Metabolite ID in rat liver microsomes; type: in vitro ADME
mGlu3 [7] = target: T1, mGlu3; assay: mGlu3 calcium assay, mGlu3 co-expressed with promiscuous G protein Gα15; type: cell-based
[8] = Metabolite ID in human liver microsomes; type: in vitro ADME
six other mGlu subtypes = assay: Activity at the six other mGlu subtypes; type: cell-based
[9] = 10% Tween80 in 0.5% methylcellulose

COc1ccc(C#Cc2ccc(C(=O)N3CCC[C@@H](CO)C3)cc2)cc1 [Compound 11]
selectivity versus mGlu2 (mGlu2): > 15 fold | CLint scaled [1]: 240 mL/min/kg | block of the glutamate EC80 (in words) (mGlu3 [2]; mGlu3 GIRK assay): full blockade | potency ratio of 11 over 12 (mGlu3 [2]; mGlu3 GIRK assay): 2 fold | mechanism of mGlu3 antagonism (mGlu3 [3]): non-competitive (allosteric) mechanism of action | brain level (IP plasma:brain level; [9]): 16.3 µM | plasma level (IP plasma:brain level; [9]): 9.7 µM | free concentration in rat brain (IP plasma:brain level; based on brain homogenate binding): ~ 163 nM | inhibition of off-targets [4]: ≤ 25% | CLint scaled [5]: 572 mL/min/kg | activity/selectivity against mGlu5 (in words) (mGlu5): complete specificity versus mGlu5 | activity/selectivity against mGlu5 (in words) (mGlu5; listed as ML289): inactive; also recorded: highly selective versus mGlu5 | potentiation of an EC20 concentration of glutamate at mGlu5 (mGlu5; mGlu5 calcium assay, PAM mode): inactive | inhibition of an EC80 concentration of glutamate at mGlu5 (mGlu5; mGlu5 calcium assay, antagonist mode): inactive | principle biotransformation pathway [6]: P450-mediated O-demethylation | % Glu Min (mGlu3 [7]): 2.1±0.3% | principle biotransformation pathway [8]: P450-mediated O-demethylation

O=C(c1ccc(C#Cc2ccccc2)cc1)N1CCC(O)CC1 [Compound 3]
IC50 (mGlu3 [2]; mGlu3 IC50, mGlu3 GIRK assay): ~10 µM and > 10 µM | activity at the six other mGlu subtypes (six other mGlu subtypes): no activity

COc1ccc(C#Cc2ccc(C(=O)N3CCCC(CO)C3)cc2)cc1 (stereo not drawn) [Compound 10e]
block of the glutamate EC80 (in words) (mGlu3 [2]; mGlu3 GIRK assay): full block

COc1ccc(C#Cc2ccc(C(=O)N3CCC[C@H](CO)C3)cc2)cc1 [Compound 12]
block of the glutamate EC80 (in words) (mGlu3 [2]; mGlu3 GIRK assay): full blockade
